Reference: ChEMBL document CHEMBL1201862, “PubChem BioAssay data set” (2004)
Active and inactive are the calls of the source.

Tests used:
[1] = biological target: Voltage-dependent T-type calcium channel subunit alpha-1H (Homo sapiens, UniProt O95180); format: functional;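 further: channel activity triggered by adding a high calcium stimulation buffer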
[2] = Luminescence Cell-Based Dose Confirmation HTS to Identify Activators of 5'UTR Stem-Loop Driven Alpha-Synuclein mRNA Translation in H4 Neuroglioblastoma Cells. [Related pubchem assays: 1829 (Project Summary), 1814 (Primary HTS)]; format: functional
H4 = test: Luminescence Cell-Based Dose Response HTS to Identify Activators of 5'UTR Stem-Loop Driven Prion Protein mRNA Translation in H4 Neuroglioblastoma Cells. [Related pubchem assays: 1829 (Project Summary), 1814 (Primary HTS)]; format: functional; details: Homo sapiens
[3] = Luminescence Cell-Based Dose Response HTS to Identify Activators of Luciferase Translation or Activity in H4 […] Cells. [Related pubchem assays: 1829 (Project Summary), 1814 (Primary HTS)]; format: functional
[4] = biological target: T1, Adenosylmethionine-8-amino-7-oxononanoate aminotransferase (Mycobacterium tuberculosis, UniProt P9WQ81); test: Mycobacterium tuberculosis BioA enzyme inhibitor Measured in Biochemical System Using Plate Reader - 2163-02_Inhibitor_Dose_CherryPick_Activity.; format: functional, Mycobacterium tuberculosis UT205
T1 sequence (P9WQ81 whole entry): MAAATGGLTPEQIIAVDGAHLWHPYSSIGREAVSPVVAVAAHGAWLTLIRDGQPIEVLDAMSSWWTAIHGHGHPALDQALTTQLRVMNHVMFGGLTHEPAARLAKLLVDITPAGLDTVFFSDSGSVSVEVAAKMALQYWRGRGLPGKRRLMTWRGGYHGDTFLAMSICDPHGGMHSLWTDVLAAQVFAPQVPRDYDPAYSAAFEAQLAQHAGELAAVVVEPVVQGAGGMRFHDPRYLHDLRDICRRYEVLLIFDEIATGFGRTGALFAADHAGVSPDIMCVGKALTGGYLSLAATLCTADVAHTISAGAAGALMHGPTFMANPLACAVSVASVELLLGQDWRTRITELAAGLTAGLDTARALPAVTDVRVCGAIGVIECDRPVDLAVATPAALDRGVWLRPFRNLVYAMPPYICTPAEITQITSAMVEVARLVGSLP

[5] = HIV-1 AD8 envelope cell-cell fusion blockers – cherry-pick, dose response (AID 652062); format: functional, cell-based;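 further: luciferase signal from cell-cell fusion driven by HIV-1 clade B AD8 Env; potency is for inhibitors of fusion seen as a drop in luminescence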
[6] = blockers of HIV-1 ZM109 envelope-driven cell-cell fusion – HeLa effector, CEM target cells, luciferase, cherry-pick, dose response (AID 652058); format: functional, cell-based;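 further: luciferase signal from HIV-1 Env mediated cell-cell fusion of effector and target cells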
[7] = blockers of HIV-1 envelope-mediated cell-cell fusion – cherry-pick, dose response (AID 652057); format: functional, cell-based
[8] = viability loss in HeLa cells – cytotoxicity control for MgcRacGAP inhibitor project, dose response (AID 624300); format: functional
[9] = biological target: T2, Rac GTPase-activating protein 1 (Homo sapiens, UniProt Q9H0H5); test: blockers of MgcRacGAP-driven Rac1 GTP hydrolysis – biochemical, ADP Hunter fluorescence, primary and confirmatory, confirmation (AID 624330); format: functional
T2 sequence (Q9H0H5 whole entry): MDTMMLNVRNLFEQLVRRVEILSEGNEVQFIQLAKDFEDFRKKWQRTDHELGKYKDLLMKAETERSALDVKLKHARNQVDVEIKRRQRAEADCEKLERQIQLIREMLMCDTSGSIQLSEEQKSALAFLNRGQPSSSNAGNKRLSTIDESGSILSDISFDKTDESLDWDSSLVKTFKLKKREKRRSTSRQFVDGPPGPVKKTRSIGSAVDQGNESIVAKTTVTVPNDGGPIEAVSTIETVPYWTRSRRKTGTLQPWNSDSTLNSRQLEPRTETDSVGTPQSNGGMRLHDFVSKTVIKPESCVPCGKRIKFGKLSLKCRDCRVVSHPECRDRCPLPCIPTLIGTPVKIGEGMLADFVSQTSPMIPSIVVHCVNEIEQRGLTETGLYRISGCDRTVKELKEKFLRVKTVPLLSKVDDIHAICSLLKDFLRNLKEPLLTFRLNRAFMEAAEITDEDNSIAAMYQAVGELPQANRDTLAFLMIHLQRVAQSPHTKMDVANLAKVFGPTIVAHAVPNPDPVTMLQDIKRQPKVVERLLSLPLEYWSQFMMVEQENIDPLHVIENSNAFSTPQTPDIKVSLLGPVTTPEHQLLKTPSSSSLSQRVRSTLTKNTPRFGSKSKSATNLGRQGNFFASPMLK

[10] = luciferase reporter signal suppression in cells – H4 neuroglioma cells, luminescence, dose response (AID 1990); format: functional, cell-based
[11] = Luminescence Cell-Based Dose Response HTS to Identify Inhibitors of 5'UTR Stem-Loop Driven Prion Protein mRNA Translation in H4 Neuroglioblastoma Cells. [Related pubchem assays: 1827 (Project Summary), 1813 (Primary HTS)]; format: functional
[12] = alpha-synuclein stem-loop luciferase translation blockers – H4 neuroglioma cells, luminescence, confirmation (AID 1988); format: functional, cell-based
[13] = biological target: T3, RNA-binding protein pos-1 (Caenorhabditis elegans, UniProt G5EF15); test: disruptors of C. elegans POS-1 RNA interaction – biochemical, fluorescence polarization, dose response (AID 1964);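 further: purified POS-1 fused to maltose binding protein made in E. coli; potency of compounds blocking POS-1 binding to fluorescent RNA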
T3 sequence (G5EF15 whole entry): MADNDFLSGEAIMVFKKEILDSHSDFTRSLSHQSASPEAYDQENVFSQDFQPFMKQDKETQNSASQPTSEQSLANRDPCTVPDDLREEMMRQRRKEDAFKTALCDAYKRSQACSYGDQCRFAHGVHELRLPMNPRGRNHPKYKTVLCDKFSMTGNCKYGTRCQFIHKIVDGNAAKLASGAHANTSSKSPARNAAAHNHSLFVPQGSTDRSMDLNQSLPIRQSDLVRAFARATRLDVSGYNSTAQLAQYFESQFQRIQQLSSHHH

[14] = biological target: T4, Zinc finger protein mex-5 (Caenorhabditis elegans, UniProt Q9XUB2); test: potency of MEX-5 RNA-binding blockers – biochemical, C. elegans, fluorescence polarization, dose response (AID 1960)
T4 sequence (Q9XUB2 whole entry): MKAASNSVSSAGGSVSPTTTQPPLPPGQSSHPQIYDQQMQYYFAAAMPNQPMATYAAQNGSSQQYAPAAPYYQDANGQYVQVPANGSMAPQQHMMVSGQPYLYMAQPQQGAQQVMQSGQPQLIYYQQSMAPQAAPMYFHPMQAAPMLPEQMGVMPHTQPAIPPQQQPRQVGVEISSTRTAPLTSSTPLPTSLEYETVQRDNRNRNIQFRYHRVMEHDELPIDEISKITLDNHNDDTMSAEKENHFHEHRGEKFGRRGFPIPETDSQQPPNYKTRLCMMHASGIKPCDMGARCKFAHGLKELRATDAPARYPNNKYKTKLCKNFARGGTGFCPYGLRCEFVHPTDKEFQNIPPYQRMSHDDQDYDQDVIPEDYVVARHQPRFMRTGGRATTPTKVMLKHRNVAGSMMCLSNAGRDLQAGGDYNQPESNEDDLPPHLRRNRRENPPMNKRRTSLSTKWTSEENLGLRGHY

[15] = biological target: T5, Long-chain-fatty-acid--AMP ligase FadD28 (Mycobacterium tuberculosis, UniProt P9WQ59); test: Fluorescence polarization aasay to screen for inhibitors that compete for the binding of FadD28 to a bisubstrate Measured in Biochemical System Using Plate Reader - 2147-01_Inhibitor_Dose_CherryPick_Activity.; format: functional, Mycobacterium tuberculosis H37Rv
T5 sequence (P9WQ59 whole entry): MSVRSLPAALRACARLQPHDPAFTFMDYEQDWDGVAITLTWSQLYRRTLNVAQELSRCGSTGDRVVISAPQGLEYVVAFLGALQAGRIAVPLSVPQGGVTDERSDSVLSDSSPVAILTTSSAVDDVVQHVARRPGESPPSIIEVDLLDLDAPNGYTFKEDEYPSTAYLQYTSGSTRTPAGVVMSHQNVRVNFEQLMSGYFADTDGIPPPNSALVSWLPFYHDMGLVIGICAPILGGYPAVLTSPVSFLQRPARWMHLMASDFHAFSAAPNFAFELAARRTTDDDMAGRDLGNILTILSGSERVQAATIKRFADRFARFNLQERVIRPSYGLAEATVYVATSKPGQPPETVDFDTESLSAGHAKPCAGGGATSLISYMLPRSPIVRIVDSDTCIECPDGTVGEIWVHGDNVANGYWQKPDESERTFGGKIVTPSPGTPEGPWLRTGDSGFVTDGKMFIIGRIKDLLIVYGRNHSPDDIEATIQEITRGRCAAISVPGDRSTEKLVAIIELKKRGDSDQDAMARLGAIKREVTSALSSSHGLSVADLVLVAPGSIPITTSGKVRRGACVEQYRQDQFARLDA

[16] = viability loss in HEK293 cells – cell-based, plate reader, cherry-picked samples, cytotoxicity control, dose response (AID 743446); format: functional
[17] = blockers of bursicon-stimulated LGR2 cAMP reporter – cell-based, HEK293, CRE-luciferase reporter, cherry pick, set 2, dose response (AID 743343); format: functional;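 further: transfected cells were stimulated with diluted bursicon conditioned medium after compound addition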
[18] = blockade of melanocortin 4 receptor signaling – cell-based, plate reader, cherry pick, counter-screen for LGR2 antagonist project, dose response (AID 743444); format: functional;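 further: transfected HEK 293 cells stimulated with alpha-MSH peptide; potency of inhibitors of the alpha-MSH evoked signal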
[19] = A549 cell cytotoxicity, dose response, cytotoxicity control, plate reader, cherry-pick, antagonist series (AID 743412); format: functional, cell-based
H9c2 = test: cells; format: functional, cell-based; details: Rattus norvegicus, H9c2, Myocardium;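 further: confirmatory concentration-response retest of ultra-high-throughput screening hits for modulation of myocardial damage; cell death induced by hydrogen peroxide oxidative stress; compound pretreatment for 60 min then peroxide exposure for 2 h; potency is for protecting the cells against peroxide damage rather than for killing them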

Voltage-dependent T-type calcium channel subunit alpha-1H, sequence (O95180 whole entry): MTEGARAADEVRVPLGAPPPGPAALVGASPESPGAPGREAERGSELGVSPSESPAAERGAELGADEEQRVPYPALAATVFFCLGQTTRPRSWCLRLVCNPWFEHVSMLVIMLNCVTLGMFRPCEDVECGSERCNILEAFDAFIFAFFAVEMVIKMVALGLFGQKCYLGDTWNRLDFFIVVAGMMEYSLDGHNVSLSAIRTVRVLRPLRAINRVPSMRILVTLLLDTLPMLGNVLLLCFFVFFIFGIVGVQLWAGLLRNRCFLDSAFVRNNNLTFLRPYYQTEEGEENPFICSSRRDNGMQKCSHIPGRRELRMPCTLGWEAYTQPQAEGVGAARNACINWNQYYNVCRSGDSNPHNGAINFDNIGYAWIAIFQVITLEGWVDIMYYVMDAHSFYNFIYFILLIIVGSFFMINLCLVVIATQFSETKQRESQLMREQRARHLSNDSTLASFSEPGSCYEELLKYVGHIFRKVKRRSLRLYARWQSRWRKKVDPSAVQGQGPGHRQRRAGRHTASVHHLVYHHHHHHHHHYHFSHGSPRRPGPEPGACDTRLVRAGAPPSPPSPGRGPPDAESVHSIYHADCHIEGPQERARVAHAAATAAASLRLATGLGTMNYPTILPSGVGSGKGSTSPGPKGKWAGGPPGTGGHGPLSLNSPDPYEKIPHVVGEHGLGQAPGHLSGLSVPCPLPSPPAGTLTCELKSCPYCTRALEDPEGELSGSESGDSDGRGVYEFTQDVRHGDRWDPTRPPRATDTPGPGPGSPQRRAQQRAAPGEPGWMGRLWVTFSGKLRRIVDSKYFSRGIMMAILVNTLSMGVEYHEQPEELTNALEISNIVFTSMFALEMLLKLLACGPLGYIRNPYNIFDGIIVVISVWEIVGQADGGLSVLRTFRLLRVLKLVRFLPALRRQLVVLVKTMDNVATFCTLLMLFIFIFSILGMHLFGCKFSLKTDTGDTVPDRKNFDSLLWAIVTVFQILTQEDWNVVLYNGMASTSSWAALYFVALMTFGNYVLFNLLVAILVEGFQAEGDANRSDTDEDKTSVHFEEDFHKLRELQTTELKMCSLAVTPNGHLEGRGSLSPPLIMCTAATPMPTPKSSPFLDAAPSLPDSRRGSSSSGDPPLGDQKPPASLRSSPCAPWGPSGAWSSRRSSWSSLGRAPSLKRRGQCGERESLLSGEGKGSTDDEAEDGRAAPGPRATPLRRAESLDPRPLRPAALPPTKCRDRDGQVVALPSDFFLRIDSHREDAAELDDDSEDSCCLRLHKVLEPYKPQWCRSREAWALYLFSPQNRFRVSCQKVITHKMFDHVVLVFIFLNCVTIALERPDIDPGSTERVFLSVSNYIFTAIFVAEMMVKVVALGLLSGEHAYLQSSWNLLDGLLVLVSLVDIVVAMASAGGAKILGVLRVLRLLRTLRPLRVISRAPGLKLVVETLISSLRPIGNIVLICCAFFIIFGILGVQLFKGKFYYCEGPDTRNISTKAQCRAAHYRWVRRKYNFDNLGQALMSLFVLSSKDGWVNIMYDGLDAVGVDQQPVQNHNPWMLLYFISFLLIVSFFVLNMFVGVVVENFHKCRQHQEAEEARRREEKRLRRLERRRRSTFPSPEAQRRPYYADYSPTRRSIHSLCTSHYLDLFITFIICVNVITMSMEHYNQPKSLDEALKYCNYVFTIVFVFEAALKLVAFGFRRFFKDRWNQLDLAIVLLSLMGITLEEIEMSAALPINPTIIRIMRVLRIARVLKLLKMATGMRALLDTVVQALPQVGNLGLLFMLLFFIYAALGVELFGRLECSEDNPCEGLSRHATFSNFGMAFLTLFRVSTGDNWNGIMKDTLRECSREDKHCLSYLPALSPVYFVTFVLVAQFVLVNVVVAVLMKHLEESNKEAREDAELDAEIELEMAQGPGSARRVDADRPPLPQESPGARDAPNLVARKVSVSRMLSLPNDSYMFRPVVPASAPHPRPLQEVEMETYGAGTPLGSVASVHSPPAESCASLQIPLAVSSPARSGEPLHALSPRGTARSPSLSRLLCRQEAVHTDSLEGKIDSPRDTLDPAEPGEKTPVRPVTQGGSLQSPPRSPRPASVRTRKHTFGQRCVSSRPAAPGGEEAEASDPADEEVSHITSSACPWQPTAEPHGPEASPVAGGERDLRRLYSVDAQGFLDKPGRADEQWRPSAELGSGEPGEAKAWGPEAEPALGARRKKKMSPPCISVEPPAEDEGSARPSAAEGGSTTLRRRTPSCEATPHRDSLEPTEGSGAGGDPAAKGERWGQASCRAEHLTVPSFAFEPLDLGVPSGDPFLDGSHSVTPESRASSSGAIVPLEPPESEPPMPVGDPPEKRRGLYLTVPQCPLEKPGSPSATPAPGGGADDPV

For `CCc1nnc(NC(=O)CC(CN(C)S(=O)(=O)c2ccccc2)c2ccccc2)s1` (stereo unspecified), the EC50 [1] was 2.4 µM (active).
For `CC1CCC2(CC1)NC(=O)N(NC(=O)CCl)C2=O` (stereo unspecified), the EC50 [2] was 34.7 µM (active), the EC50 (H4) was > 120 µM (not active) and the EC50 [3] was > 120 µM (not active).
In the case of `O=C(CCSc1nc(-c2ccco2)cc(C(F)(F)F)n1)N1CCN(c2ccccn2)CC1`, the EC50 [1] is reported as 6.47 µM (active).
With `CC(=O)c1ccc(N2CCN(C(=O)c3ccc4c(c3)OCO4)CC2)cc1` the AC50 [4] was 0.155 µM (active).
With `Cc1noc(C)c1S(=O)(=O)N(C)C[C@@H]1Oc2ccc(NC(=O)Nc3cccc4ccccc34)cc2CC(=O)N([C@@H](C)CO)C[C@@H]1C` the AC50 [5] was 9.04 µM (active), the AC50 [6] was 2.44 µM (active) and the AC50 [7] was 4.83 µM (active).
In the case of `COc1cc2c(cc1OC)C(/C=C/c1ccco1)=NCC2`, the CC50 [8] is reported as 100 µM (active) and the IC50 [9] is reported as 42.3 µM (active).
In the case of `CCNC(=O)[C@H]1[C@H](CO)[C@H]2Cn3c(ccc(-c4ccccc4)c3=O)[C@H]2N1C(=O)Cc1cccnc1`, the AC50 [4] is reported as 16.3 µM (active).
With `CCOC(=O)c1c(C)[nH]c(C)c1C(=O)Cn1nnc(-c2ccccc2C)n1` the EC50 [10] was > 60 µM (not active), the EC50 [11] was 18.3 µM (active) and the EC50 [12] was > 120 µM (not active). The EC50 [1] was 5.31 µM (active).
For `CCc1c(C(=O)NNC(=S)Nc2ccc(S(=O)(=O)Nc3ncccn3)cc2)csc1C`, the EC50 [13] was > 300 µM (not active), the EC50 [14] was 12.5 µM (active) and the AC50 [15] was 89.7 µM (active).
With `CCOc1ccc(-n2cc(-c3ccccc3)c3c(N4CCOCC4)ncnc32)cc1` the AC50 [16] was > 52 µM (inactive), the AC50 [17] was 56.7 µM (active) and the AC50 [18] was 47.3 µM (active). For the same compound, the AC50 [19] was 36.1 µM (active) and the IC50 (H9c2) was > 79 µM (inactive).
In the case of `CC1CC(C)CN(C(=O)CSc2nnc(-c3ccc(Cl)s3)o2)C1` (stereo unspecified), the EC50 [1] is reported as 10.8 µM (active).
In the case of `CN1CCN(c2ccc(Cl)cc2NC(=O)C2COc3ccccc3O2)CC1` (stereo unspecified), the EC50 [1] is reported as 8.08 µM (active).
